Test results published in patent US9603834B2, “1,2- bis-sulfonamide derivatives as chemokine receptor modulators” (Allergan, Inc., priority 2010, dated 2017).

Target: CCR2 (Homo sapiens (Human), UniProt P41597)
Test: Calcium activity on FLIPR Tetra in HEK-Gqi5 cells stably expressing CCR2
Type: cell-based
Details: FLIPR Tetra calcium assay
Description: HEK-Gqi5 cells stably expressing CCR2 were cultured in (DMEM high glucose, 10% FBS, 1% PSA, 400 μg/ml geneticin and 50 μg/ml hygromycin. Appropriate positive control chemokines (MCP-1, MIP1A or RANTES) was used as the positive control agonist for screening compound-induced calcium activity assayed on the FLIPR^Tetra. The drug plates were prepared in 384-well microplates using the EP3 and the MultiPROBE robotic liquid handling systems. Compounds were synthesized and tested for CCR2 activity.

CCR2, sequence (P41597 whole entry, species assumed): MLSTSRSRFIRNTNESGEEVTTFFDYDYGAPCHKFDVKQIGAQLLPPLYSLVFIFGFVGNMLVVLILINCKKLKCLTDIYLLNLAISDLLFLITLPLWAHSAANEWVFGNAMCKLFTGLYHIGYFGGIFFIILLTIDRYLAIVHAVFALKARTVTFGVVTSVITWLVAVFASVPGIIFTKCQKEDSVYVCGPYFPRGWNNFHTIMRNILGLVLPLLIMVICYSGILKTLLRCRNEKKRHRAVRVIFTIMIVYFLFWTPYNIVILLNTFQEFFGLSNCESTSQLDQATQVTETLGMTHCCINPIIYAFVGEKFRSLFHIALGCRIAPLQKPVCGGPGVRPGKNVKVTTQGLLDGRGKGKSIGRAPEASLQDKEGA

SMILES | CCR2 % Antagonism [%] | IC50 [nM]
O=S(=O)(Nc1cc(Cl)c(Cl)cc1NS(=O)(=O)c1cccs1)c1ccc(F)c(C(F)(F)F)c1 [N-[4,5-dichloro-2-({[4-fluoro-3-(trifluoromethyl)phenyl]sulfonyl}amino)phenyl]thiophene-2-sulfonamide] | 89 | 432
Cn1cnc(S(=O)(=O)Nc2ccc(Cl)cc2NS(=O)(=O)c2cc3ccccc3o2)c1 [N-{2-[(1-benzofuran-2-ylsulfonyl)amino]-4-chlorophenyl}-1-methyl-1H-imidazole-4-sulfonamide] | 110 | 423
O=S(=O)(Nc1cc(Cl)c(Cl)cc1NS(=O)(=O)c1ccc(F)cc1F)c1cccs1 [N-(4,5-dichloro-2-{[(2,4-difluorophenyl)sulfonyl]amino}phenyl)thiophene-2-sulfonamide] | 89 | 451
O=S(=O)(Nc1ccc(Cl)cc1NS(=O)(=O)c1cccs1)c1cc2ccccc2o1 [N-{4-chloro-2-[(2-thienylsulfonyl)amino]phenyl}-1-benzofuran-2-sulfonamide] | 90 | 145
O=S(=O)(Nc1cc(Cl)ccc1NS(=O)(=O)c1cccs1)c1cc2ccccc2o1 [N-{5-chloro-2-[(2-thienylsulfonyl)amino]phenyl}-1-benzofuran-2-sulfonamide] | 86 | 20
O=S(=O)(Nc1cc(Cl)ccc1NS(=O)(=O)c1c(F)cccc1F)c1cc2ccccc2o1 [N-(5-chloro-2-{[(2,6-difluorophenyl)sulfonyl]amino}phenyl)-1-benzofuran-2-sulfonamide] | 99 | 153
O=S(=O)(Nc1cc(Cl)ccc1NS(=O)(=O)c1c(Cl)cccc1Cl)c1cc2ccccc2o1 [N-(5-chloro-2-{[(2,6-dichlorophenyl)sulfonyl]amino}phenyl)-1-benzofuran-2-sulfonamide] | 89 | 478
O=S(=O)(Nc1cc(Cl)c(Cl)cc1NS(=O)(=O)c1ccc(Cl)cc1F)c1cccs1 [N-(4,5-dichloro-2-{[(4-chloro-2-fluorophenyl)sulfonyl]amino}phenyl)thiophene-2-sulfonamide] | 94 | 361
O=S(=O)(Nc1cc(Cl)c(Cl)cc1NS(=O)(=O)c1cccs1)c1cccc(Cl)c1 [N-(4,5-dichloro-2-{[(3-chlorophenyl)sulfonyl]amino}phenyl)thiophene-2-sulfonamide] | 90 | 391
Cn1ccc(S(=O)(=O)Nc2ccc(Cl)cc2NS(=O)(=O)c2cc3ccccc3o2)n1 [N-{2-[(1-benzofuran-2-ylsulfonyl)amino]-4-chlorophenyl}-1-methyl-1H-pyrazole-3-sulfonamide] | 96 | 185
O=S(=O)(Nc1cc(Cl)c(Cl)cc1NS(=O)(=O)c1cc2ccccc2s1)c1cccs1 [N-{4,5-dichloro-2-[(2-thienylsulfonyl)amino]phenyl}-1-benzothiophene-2-sulfonamide] | 94 | 494
Cc1ccc(S(=O)(=O)Nc2cc(Cl)c(Cl)cc2NS(=O)(=O)c2cccs2)o1 [N-{4,5-dichloro-2-[(2-thienylsulfonyl)amino]phenyl}-5-methylfuran-2-sulfonamide] | 95 | 311
COC(=O)c1sccc1S(=O)(=O)Nc1ccc(Cl)cc1NS(=O)(=O)c1cc2ccccc2o1 [methyl 3-[({2-[(1-benzofuran-2-ylsulfonyl)amino]-4-chlorophenyl}amino)sulfonyl]thiophene-2-carboxylate] | 96 | 246
Cc1ccc(S(=O)(=O)Nc2ccc(Cl)cc2NS(=O)(=O)c2cc3ccccc3o2)s1 [N-(5-chloro-2-{[(5-methyl-2-thienyl)sulfonyl]amino}phenyl)-1-benzofuran-2-sulfonamide] | 96 | 339
O=S(=O)(Nc1cc(Cl)c(Cl)cc1NS(=O)(=O)c1ccccc1F)c1cccs1 [N-(4,5-dichloro-2-{[(2-fluorophenyl)sulfonyl]amino}phenyl)thiophene-2-sulfonamide] | 67 | 402

Further compounds by falling IC50, results first:

CCR2 % Antagonism [%] | IC50 [nM] | SMILES
82 | 482 | O=S(=O)(Nc1cc(Cl)c(Cl)cc1NS(=O)(=O)c1cc(Cl)cc(Cl)c1O)c1cccs1 [N-(4,5-dichloro-2-{[(3,5-dichloro-2-hydroxyphenyl)sulfonyl]amino}phenyl)thiophene-2-sulfonamide]
91 | 471 | Cc1cc(S(=O)(=O)Nc2cc(Cl)c(Cl)cc2NS(=O)(=O)c2cccs2)ccc1Br [N-(2-{[(4-bromo-3-methylphenyl)sulfonyl]amino}-4,5-dichlorophenyl)thiophene-2-sulfonamide]
91 | 441 | O=S(=O)(Nc1cc(Cl)c(Cl)cc1NS(=O)(=O)c1cccs1)c1ccc(F)cc1 [N-(4,5-dichloro-2-{[(4-fluorophenyl)sulfonyl]amino}phenyl)thiophene-2-sulfonamide]
79 | 394 | O=S(=O)(Nc1cc(Cl)c(Cl)cc1NS(=O)(=O)c1cccs1)c1ccc(Cl)c(Cl)c1 [N-(4,5-dichloro-2-{[(3,4-dichlorophenyl)sulfonyl]amino}phenyl)thiophene-2-sulfonamide]
85 | 349 | O=S(=O)(Nc1cccnc1NS(=O)(=O)c1cccs1)c1ccc(Cl)c(C(F)(F)F)c1 [N-[3-({[4-chloro-3-(trifluoromethyl)phenyl]sulfonyl}amino)pyridin-2-yl]thiophene-2-sulfonamide]
88 | 306 | O=S(=O)(Nc1cc(Cl)c(Cl)cc1NS(=O)(=O)c1cccs1)c1cccc(C(F)(F)F)c1 [N-[4,5-dichloro-2-({[3-(trifluoromethyl)phenyl]sulfonyl}amino)phenyl]thiophene-2-sulfonamide]
80 | 294 | Cc1nn(C)c(Cl)c1S(=O)(=O)Nc1ccc(Cl)cc1NS(=O)(=O)c1cc2ccccc2o1 [N-{2-[(1-benzofuran-2-ylsulfonyl)amino]-4-chlorophenyl}-5-chloro-1,3-dimethyl-1H-pyrazole-4-sulfonamide]
100 | 281 | O=S(=O)(Nc1cc(Cl)c(Cl)cc1NS(=O)(=O)c1cccs1)c1ccc(Cl)nc1 [6-chloro-N-{4,5-dichloro-2-[(2-thienylsulfonyl)amino]phenyl}pyridine-3-sulfonamide]
89 | 263 | O=S(=O)(Nc1cc(Cl)c(Cl)cc1NS(=O)(=O)c1ccc(Cl)s1)c1cccs1 [5-chloro-N-{4,5-dichloro-2-[(2-thienylsulfonyl)amino]phenyl}thiophene-2-sulfonamide]
96 | 217 | O=S(=O)(Nc1cc(Cl)c(Cl)cc1NS(=O)(=O)c1cccc(Cl)c1F)c1cccs1 [N-(4,5-dichloro-2-{[(3-chloro-2-fluorophenyl)sulfonyl]amino}phenyl)thiophene-2-sulfonamide]
108 | 183 | Cc1n[nH]c(C)c1S(=O)(=O)Nc1ccc(Cl)cc1NS(=O)(=O)c1cc2ccccc2o1 [N-{2-[(1-benzofuran-2-ylsulfonyl)amino]-4-chlorophenyl}-3,5-dimethyl-1H-pyrazole-4-sulfonamide]
100 | 96 | O=S(=O)(Nc1cc(Cl)c(Cl)cc1NS(=O)(=O)c1cccs1)c1cc2ccccc2o1 [N-{4,5-dichloro-2-[(2-thienylsulfonyl)amino]phenyl}-1-benzofuran-2-sulfonamide]
